Target: T1, SmHPL1b (Selaginella moellendorffii, UniProt D8RF82)
T1 construct: gene CYP74L1; full ORF from genomic DNA in pET100/D-TOPO (tag kept), E. coli BL21 Star (DE3) membrane fraction
Test: decrease in absorbance at […] nm
Assay type: biochemical
Conditions: E. coli membrane fraction, MES-KOH pH 6.0, 25 °C (methods); optimum pH 5.5

T1 sequence (D8RF82 entry or part of it): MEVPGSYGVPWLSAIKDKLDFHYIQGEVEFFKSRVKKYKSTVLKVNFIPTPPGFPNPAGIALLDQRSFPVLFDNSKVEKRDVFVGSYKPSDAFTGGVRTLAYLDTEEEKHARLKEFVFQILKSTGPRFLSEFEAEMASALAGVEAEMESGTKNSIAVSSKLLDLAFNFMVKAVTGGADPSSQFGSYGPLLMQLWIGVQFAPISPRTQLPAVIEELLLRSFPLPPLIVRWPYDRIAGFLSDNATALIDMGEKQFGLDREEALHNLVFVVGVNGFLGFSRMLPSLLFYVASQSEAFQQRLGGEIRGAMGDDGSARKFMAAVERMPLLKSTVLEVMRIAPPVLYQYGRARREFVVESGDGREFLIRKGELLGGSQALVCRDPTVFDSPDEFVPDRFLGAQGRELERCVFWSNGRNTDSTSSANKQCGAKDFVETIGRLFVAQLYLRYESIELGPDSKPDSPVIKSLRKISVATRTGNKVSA

Km: 31.4 µM
SMILES: CC/C=C\C[C@@H](/C=C/C=C\CCCCCCCC(=O)O)OO [13HPOT, (9Z,11E,15Z)-13-hydroperoxyoctadeca-9,11,15-trienoic acid]

Source: publication PMC8578206, “Green Leaf Volatile-Burst in Selaginella moellendorffii” (Frontiers in Plant Science, 2021)
